The source of these data is US20220362264A1, “ABIRATERONE-CYCLIC OLIGOMER PHARMACEUTICAL FORMULATIONS AND METHODS OF FORMATION AND ADMINISTRATION THEREOF” (DISPERSOL TECHNOLOGIES, LLC., priority 2019, published 2022).

In data set [1] the test system is 22RV1 human prostate tumor xenograft. Nature of the data set: Anti-tumor activity in 22RV1 human prostate tumor xenograft model. It is filed as in vivo, CB.17 SCID mice. The following applies: low and high doses, once-daily oral gavage. Here is the method:
The objective of the xenograft mice study was to determine the anti-tumor activity of a composition made per Example 2.4 as a single agent versus abiraterone acetate in the 22RV1 human prostate tumor xenograft model. The study was conducted in CB.17 SCID mice injected with 22RV1 cells (5×10^6 cells/mouse) in the subcutaneous right flank. Tumors were grown to a mean tumor size between 100 and 150 mm^3 prior to study enrollment. The mice were dosed with the test article and reference once-daily by oral gavage per Table 12. Tumor volume was measured throughout the study. The study was terminated on day 26 when mean tumor volume of two experimental groups reached≥1500 mm^3.
A general note: A xenograft is tissue or cells of one species grown in another, often human tumour cells in immunodeficient mice.

In data set [2] the test system is prostate specific antigen (PSA). The following applies: 1,000 mg daily, well controlled trials; cited from earlier work.
For data set [3] the following is noted: cited from earlier work.
Data set [4] can be described thus: Phase solubility analysis of abiraterone-HPBCD. Format: physicochemical. Particulars: with HPBCD, in 0.01N HCl and FaSSIF. How it is done:
Phase Solubility Analysis. Phase solubility analysis was conducted in two separate media, i.e., 0.01N HCl (pH 2.0) and FaSSIF (prepared in 50 mMol Phosphate Buffer pH 6.8). Solutions of HPBCD ranging from 0 mg/mL to 600 mg/mL were prepared in each media in scintillation vials. An excess of abiraterone was added to each vial and the vials were sonicated for 30 minutes and placed on a bench. Samples were pulled from each vial at time points of 48 hrs and 7 days. The samples were centrifuged using an ultracentrifuge (Eppendrof, Hamburg, Germany) The supernatants were further diluted using the HPLC diluent and analyzed by HPLC method mentioned above to find the concentration of abiraterone.

SMILES strings stand for the structures.

`CC(=O)O[C@H]1CC[C@@]2(C)C(=CC[C@@H]3[C@@H]2CC[C@]2(C)C(c4cccnc4)=CC[C@@H]32)C1` [Abiraterone Acetate, (3β)-17-(3-pyridinyl)androsta-5, 16-dien-3-ol acetate]: the “tumor growth relative to vehicle control” value in data set [1] is reported as “did not result in statistically different tumor growth”. Further, the “treated patients achieving target PSA reductions” value in data set [2] is listed as “up to 60%”.
Usually pKa stands for the negative logarithm of the acid dissociation constant. In the case of `C[C@]12CC[C@H](O)CC1=CC[C@@H]1[C@@H]2CC[C@]2(C)C(c3cccnc3)=CC[C@@H]12` [Abiraterone, (3β)-17-(3-pyridinyl)androsta-5,16-dien-3-ol], the pKa in data set [3] was 4.81. Also, the “type of solution state phase solubility profile (Higuchi and Connors)” value in data set [4] is listed as “A-type”.
